Measured values reported in patent US20130123206A1, “TREATMENT OF METABOLIC SYNDROME AND INSULIN RESISTANCE WITH CITRUS FLAVANONES” (priority 2010, published 2013).
Entries after “also recorded” stand apart in the source; their conditions may differ.

Experiments:
[1] = tested on: bovine aortic endothelial cells (BAEC); experiment: Evaluation of NO production in fixed cells (DAF-2 DA fluorescence); format: cell-based; conditions: for NO production in response to hesperetin after inhibitor pre-treatment: 10 min; for NO production in response to hesperetin after inhibitor pre-treatment / NO production in response to insulin after inhibitor pre-treatment: inhibitor added 30 min before DAF-2 DA loading; for NO production in response to insulin after inhibitor pre-treatment: insulin 100 nM, 5 min
Method: Bovine aortic endothelial cells (BAEC) in primary culture (Cell Applications, San Diego, Calif.) were grown in EBM (Endothelial Basal Medium) containing EGM-MV supplements (Endothelial Growth Medium-Micro Vascular; Cambrex, Walkersville, Md.) and used between passages 3 and 5 as previously described (Formoso et al., Mol Endocrinol, 20:1153-63, 2006). […] Biol. Chem. 282:13736-45, 2007; Formoso et al., Mol. Endocrinol. 20:1153-63, 2006). Briefly, BAECs were grown to 95% confluence in Lab-Tek™ chamber slides (Rochester, N.Y.) and then serum-starved overnight in phenol red-free EBM supplemented with L-arginine (100 μM). BAECs were loaded with DAF-2 DA (3 μM) for 20 minutes at 37° C. […] After loading with DAF-2 DA for 20 minutes, cells were washed with EBM at 37° C. and kept in the dark. Next, BAECs were treated with insulin (100 nM, 5 minutes), lysophosphatidic acid (LPA; 5 μM, 5 minutes), or hesperetin (10 μM, 10 minutes; Sigma). After treatment, cells were fixed in 4% paraformaldehyde (vol/vol) for 5 minutes at 4° C. Fixed cells were visualized using an Olympus IX81 inverted microscope with attached CCD camera (Retiga Exi, Burnaby, BC, Canada) using appropriate filters with a peak excitation wavelength of 480 nm and a peak emission wavelength of 510 nm. Images were captured using IPLab™ Software (Scanalytics, Inc., Fairfax, Va.).

[2] = tested on: bovine aortic endothelial cells (BAEC); experiment: Immunoblotting of phospho-AMPK, phospho-Akt, phospho-eNOS and phospho-Src in BAEC; format: cell-based
Method: Bovine aortic endothelial cells (BAEC) in primary culture (Cell Applications, San Diego, Calif.) were grown in EBM (Endothelial Basal Medium) containing EGM-MV supplements (Endothelial Growth Medium-Micro Vascular; Cambrex, Walkersville, Md.) and used between passages 3 and 5 as previously described (Formoso et al., Mol Endocrinol, 20:1153-63, 2006). BAECs were grown in 60 mm dishes, serum-starved overnight, and then treated with hesperetin (10 μM) for varying durations or for 10 minutes at different concentrations. In some experiments, Wortmannin (100 nM), or Compound C (5 μM) was added to cells 1 hour before treating with hesperetin. Cell lysates were prepared using 120 μl of lysis buffer (100 mM NaCl, 20 mM Hepes, pH 7.9, 1% Triton X-100, 1 mM Na3VO4, 4 mM sodium pyrophosphate, 10 mM EDTA, 1 mM phenylmethylsulfonyl fluoride, 10 mM NaF, and complete protease inhibitor cocktail (Roche Applied Sciences, Indianapolis, Ind.)). After centrifugation of samples at 17,000×g for 5 minutes at 4° C., supernatants were boiled with Laemmli sample buffer for 5 minutes and proteins (50 μg total protein) were resolved by 10% SDS-PAGE, transferred to nitrocellulose membranes, and immunoblotted using antibodies against eNOS (Transduction Laboratories), phospho-eNOS ([…]), Akt, phospho-Akt ([…]), AMPK, phospho-AMPK ([…]), Src ([…]) (Cell Signaling Technology), VCAM-1 (Santa Cruz, Calif.) or β-actin (Sigma) according to standard methods. Immunoblots were quantified by scanning densitometry (GE Healthcare).

[3] = tested on: bovine aortic endothelial cells (BAEC); experiment: Measurement of H2O2/ROS production (CM-H2DCF-DA fluorescence); format: cell-based; conditions: for production of ROS in BAEC: 10 μM, 10 minutes
Method: Briefly, BAECs were plated on chamber slides and incubated overnight in media free of phenol red, serum, and growth factors. Cells were then washed with Dulbecco's phosphate buffered saline containing calcium and magnesium (DPBS) before each experiment. Cells were loaded with CM-H2DCF-DA (5 μM, 20 minutes, 37° C.) and then washed to remove excess CM-H2DCF-DA. Cells were then treated with H2O2, hesperetin, or naringenin as indicated in the legends to figures followed by washing three times with DPBS. Some groups of cells were pre-treated with N-acetylcysteine (NAC) (10 mM, 2 hours). Cells were then visualized and images were captured as described for measurement of NO production.

[4] = tested on: VCAM-1 expression in BAEC; experiment: TNF-α-stimulated VCAM-1 expression by immunoblotting; format: cell-based, bovine; conditions: 5 hours
Method: FIG. 5A is a digital image showing vascular cell adhesion molecule-1 (VCAM-1) expression by immunoblotting. BAECs were serum-starved overnight and then treated without or with TNF-α (10 ng/ml, 5 hours). In some groups, cells were pre-treated with hesperetin (10 μM, 1 hour) prior to treatment with TNF-α. Cell lysates were immunoblotted using antibodies against VCAM-1 or β-actin. Representative immunoblots are shown for experiments that were repeated independently four times. BAECs were grown in 60 mm dishes, serum-starved overnight, and then treated with hesperetin (10 μM) for varying durations or for 10 minutes at different concentrations. In some experiments, Wortmannin (100 nM), or Compound C (5 μM) was added to cells 1 hour before treating with hesperetin. Cell lysates were prepared using 120 μl of lysis buffer (100 mM NaCl, 20 mM Hepes, pH 7.9, 1% Triton X-100, 1 mM Na3VO4, 4 mM sodium pyrophosphate, 10 mM EDTA, 1 mM phenylmethylsulfonyl fluoride, 10 mM NaF, and complete protease inhibitor cocktail (Roche Applied Sciences, Indianapolis, Ind.)). […] Immunoblots were quantified by scanning densitometry (GE Healthcare).

[5] = tested on: U937 monocytes adhering to BAECs; experiment: Monocyte adhesion assay; format: cell-based, bovine; conditions: 5 hours
Method: BAECs were cultured in 6-well plates and then treated with TNF-α (10 ng/ml, 5 hours) or hesperetin (10 μM, 5 hours). In some experiments, hesperetin was added 1 hour before treating cells with TNF-α. U937 monocytes were grown in DMEM medium containing 10% FBS in a culture flask. U937 monocytes were labeled for 15 min with 5 μM calcein-AM (Molecular Probes, Inc.). Labeled U937 cells (6×10^5 cells) were then incubated for 30 minutes at 37° C. with confluent BAECs pre-treated with hesperetin and/or TNF-α. Co-cultured cells were washed three times with PBS and then images of monocytes adhering to BAECs were obtained with an Olympus IX81 inverted microscope with attached CCD camera (Retiga Exi, Burnaby, BC, Canada) using appropriate filters. Images were captured using IPLab™ Software (Scanalytics, Inc., Fairfax, Va.).

[6] = BAEC serum-starved overnight, hesperetin 10 min at varying concentrations or 10 μM for varying durations
[7] = hesperetin 10 μM, 1 hour before TNF-α 10 ng/ml

**Q.** How did the “NO production in response to hesperetin after inhibitor pre-treatment” value ([1]; hesperetin 10 μM) turn out when `c1cc(-c2cnn3cc(-c4ccc(OCCN5CCCCC5)cc4)cnc23)ccn1` [Compound C] was run?
**A.** substantially inhibited

**Q.** `COC(=O)[C@@H](N)CCCNC(=N)N[N+](=O)[O-]` [L-NAME, L-N^G-Nitroarginine methyl ester] was tested. Which “NO production in response to hesperetin after inhibitor pre-treatment” value ([1]; hesperetin 10 μM) did it give?
**A.** blocked

**Q.** What about the “NO production in response to insulin after inhibitor pre-treatment” value [1] of the same molecule?
**A.** blocked

**Q.** For `CC(=O)N[C@@H](CS)C(=O)O` [N-acetylcysteine, reference compound], which “hesperetin and naringenin-stimulated phosphorylation of Src (Tyr418), Akt (Ser473), and eNOS (Ser1179) after NAC pre-treatment” value ([2]; NAC 10 mM, 2 hours, flavanone 10 μM, 10 min) is on record?
**A.** inhibited

**Q.** What about the “production of ROS after NAC pre-treatment” value ([3]; NAC 10 mM, 2 hours before loading) of the same molecule?
**A.** scavenged

**Q.** For `CC(C)(C)n1nc(-c2ccc(Cl)cc2)c2c(N)ncnc21` [PP2], which “hesperetin-stimulated phosphorylation of Src, Akt, and eNOS after PP2 pre-treatment” value ([2]; PP2 1 μM, 1 hour, hesperetin 10 μM, 10 min) is on record?
**A.** inhibited

**Q.** What about the “NO production in response to hesperetin after inhibitor pre-treatment” value ([1]; hesperetin 10 μM) of the same molecule?
**A.** inhibited

**Q.** And the “NO production in response to insulin after inhibitor pre-treatment” value [1]?
**A.** failed to inhibit

**Q.** Which results are given for `COc1ccc([C@@H]2CC(=O)c3c(O)cc(O)cc3O2)cc1O` [hesperetin]?
**A.** cellular levels of phosphorylated AMPK (Thr172) [2, 6]: Significant concentration-dependent effects; also recorded: acutely increased; also recorded: Significant time-dependent effects; cellular levels of phosphorylated Akt (Ser473) [2, 6]: Significant concentration-dependent effects; also recorded: acutely increased; also recorded: Significant time-dependent effects; phospho-eNOS (Ser1179) [2, 6]: Significant concentration-dependent effects; also recorded: increased; also recorded: Significant time-dependent effects; hesperetin-stimulated NO production in BAEC ([1]; DAF-2 DA, 10 min at varying concentrations or 10 μM for varying durations): concentration- and time-dependent increase; time of peak production of NO ([1]; hesperetin 10 μM, BAEC): 5 to 10 min; production of ROS in BAEC [3]: stimulated; TNF-α-stimulated expression of VCAM-1 after hesperetin pre-treatment [4, 7]: substantially reduced; TNF-α-stimulated adhesion of monocytes to endothelial cells after hesperetin pre-treatment [5, 7]: substantially reduced

**Q.** For `O=C1C[C@@H](c2ccc(O)cc2)Oc2cc(O)cc(O)c21` [naringenin], which “production of ROS in BAEC” value [3] is on record?
**A.** stimulated

**Q.** For TNF-α, which “expression of VCAM-1 vs vehicle-treated control cells” value ([4]; TNF-α 10 ng/ml) is on record?
**A.** increased

**Q.** And the “adhesion of labeled monocytes vs vehicle-treated control cells” value ([5]; TNF-α 10 ng/ml)?
**A.** corresponding increase
